The values below come from ChEMBL document CHEMBL1146112, “Fluorescent glycosidase inhibiting 1,5-dideoxy-1,5-iminoalditols” (Bioorg Med Chem Lett, 2006).

Experiment [1] concerns the target T1, Tissue alpha-L-fucosidase (Homo sapiens, UniProt P04066).
T1 sequence (P04066 whole entry): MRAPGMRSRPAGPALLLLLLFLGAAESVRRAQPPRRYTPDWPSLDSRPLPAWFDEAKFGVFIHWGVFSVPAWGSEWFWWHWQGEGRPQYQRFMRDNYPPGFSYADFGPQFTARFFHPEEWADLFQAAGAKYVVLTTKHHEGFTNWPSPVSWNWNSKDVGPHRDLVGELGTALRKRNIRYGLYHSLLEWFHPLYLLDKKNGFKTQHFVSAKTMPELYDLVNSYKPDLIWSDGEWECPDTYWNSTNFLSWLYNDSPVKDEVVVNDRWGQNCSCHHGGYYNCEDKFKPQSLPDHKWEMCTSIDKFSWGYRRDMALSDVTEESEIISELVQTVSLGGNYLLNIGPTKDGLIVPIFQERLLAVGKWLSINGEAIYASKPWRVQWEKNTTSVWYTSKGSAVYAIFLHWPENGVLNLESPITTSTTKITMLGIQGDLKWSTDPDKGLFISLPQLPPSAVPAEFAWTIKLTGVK
Put plainly: Inhibition of human liver alpha-L-fucosidase.

In a further experiment the target is T2, Beta-xylosidase (Thermoanaerobacterium saccharolyticum, UniProt P36906).
T2 sequence (P36906 whole entry): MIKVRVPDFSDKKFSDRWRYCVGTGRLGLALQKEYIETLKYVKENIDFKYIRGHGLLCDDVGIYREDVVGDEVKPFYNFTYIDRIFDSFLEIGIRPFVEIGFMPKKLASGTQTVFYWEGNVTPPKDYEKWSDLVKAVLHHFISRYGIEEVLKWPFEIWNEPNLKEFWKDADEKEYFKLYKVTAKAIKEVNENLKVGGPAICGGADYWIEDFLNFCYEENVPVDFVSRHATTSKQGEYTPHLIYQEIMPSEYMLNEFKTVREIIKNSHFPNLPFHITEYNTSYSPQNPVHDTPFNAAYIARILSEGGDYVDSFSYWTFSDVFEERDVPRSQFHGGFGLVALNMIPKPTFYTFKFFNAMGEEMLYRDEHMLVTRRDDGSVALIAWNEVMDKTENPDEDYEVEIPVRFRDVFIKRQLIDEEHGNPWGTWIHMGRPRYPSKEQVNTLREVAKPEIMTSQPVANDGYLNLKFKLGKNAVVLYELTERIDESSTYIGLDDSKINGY
Description: Inhibition of Thermoanaerobacterium saccharolyticum beta-xylosidase.

The Ki is the dissociation constant of the complex between target and ligand, obtained from inhibition or displacement. As to `C[C@H]1[C@@H](O)[C@@H](O)[C@H](O)CN1CCCCCCNS(=O)(=O)c1cccc2c(N(C)C)cccc12`, in experiment [1], the Ki was 0.5 µM.

As to `CN(C)c1cccc2c(S(=O)(=O)NCCCCCCN3C[C@@H](O)[C@H](O)[C@@H](O)C3)cccc12`, affinity on Beta-xylosidase was put at a Ki of 7.6 µM.

On Beta-xylosidase, `O[C@H]1[C@H](O)CNC[C@@H]1O` [DIDEOXYIMINOXYLITOL] had a Ki of 206 µM.
